Test results taken from US20250188030A1, “Biphenyl and Phenylpyridine Compounds” (Pfizer Inc., priority 2023, published 2025).
Read-outs that look alike come from different tables or passages of the source.

Tests used:
KAT2A = KAT2A (Homo sapiens (Human), UniProt Q92830); assay: KAT2A acetyltransferase biochemical assay (RapidFire mass spectrometry, AcCoA to CoA)
Procedure: • A) Compound preparation • 1) Prepare 10 mM stock solutions in 100% DMSO from solid material. • 2) Serial dilute 10 mM, 1 mM, 0.1 or 0.01 mM compound stocks 3-fold in 100% DMSO for 11-point dose response. • B) Reagent preparation • 1) Prepare 1×assay buffer containing 40 mM bis tris propane pH 8.0, 10 mM NaCl, 0.5 mM EDTA, and 0.002% Tween-20. • 2) Dilute Histone peptide (CPC Scientific) and KAT enzyme together in assay buffer to 1.25×. • 3) Dilute AcCoA (Sigma) in assay buffer to 5×. • C) Enzyme reaction • 1) Final reaction conditions for each KAT assay in a 100ul assay reaction volume: • i) KAT2A 0.5 nM, 1 uM AcCoA, 5 uM H3 1-21 peptide, 90-minute reaction • ii) KAT2B 0.5 nM, 1 uM AcCoA, 5 uM H3 1-21 peptide, 90-minute reaction • 2) Add 2 ul of diluted compound series to the assay plate (96-well round-bottom polypropylene plates) or 2 ul of DMSO for control wells. • 3) Add 11 μL of 10% formic acid to 100% effect (HPE) control wells. • 4) Add 80 ul of 1.25× Histone peptide/KAT mix to the assay plate via Multidrop Combi (ThermoFisher). Incubate 15 min at room temperature. • 5) Add 20 ul of 5× AcCoA to the assay plate via Multidrop Combi. • 6) Stop the reaction after the indicated time with the addition of 11 ul of 10% formic acid via Multidrop Combi. • 7) Each reaction was analyzed using Rapid Fire mass spectrometry platform.
KAT enzymes were expressed using a baculovirus expression system and purified at Pfizer, La Jolla. […] Acetyl coenzyme A was purchased from Sigma-Aldrich (St. Louis, MO). All other biochemical reagents were purchased from Sigma-Aldrich or ThermoFisher Scientific (Waltham, MA).
KAT assays were performed at room temperature in assay buffer containing 1 μM AcCoA, 5 μM histone peptide, 40 mM bis tris propane pH 8.0, 10 mM NaCl, 0.5 mM EDTA 0.002% Tween-20. 80 ul of 1.25× Histone peptide/enzyme mix was added to a 96-well round-bottom polypropylene assay plate containing 2 ul of serially diluted test compound in 100% dimethyl sulfoxide (DMSO). To start the reaction, 20 ul of 5× AcCoA solution was added to the assay plate. KAT assays were terminated after 90 minutes with the addition of 11 ul of 10% formic acid. All assays used histone H3 (1-21) peptide. The final enzyme concentration for each KAT was as follows: KAT2A, 0.5 nM; KAT2B, 0.5 nM. […] Each reaction was analyzed using Rapid Fire mass spectrometry platform. This methodology leverages an Agilent 6495 triple quadrupole (QQQ) mass spectrometer coupled to a RapidFire model 365 to specifically capture and measure KAT2 acetyltransferase activity, converting AcCoA (substrate) to CoA (product).
Area under the curve (AUC) for both substrate and product peaks was determined for KAT2 at M.W. 809.6 [Substrate+H]+ and 767.3 [Product+H]+ with a +/−1 Da tolerance, respectively. Acetyltransferase activity (% of DMSO control) was calculated by: ((AUCProduct/AUCsubstrate)-AUCHPE)/(AUCZPE-AUCHPE))*100. Ki values were determined by fitting the % acetyltransferase activity at each inhibitor concentration to the Morrison equation for tightbinding competitive inhibitors using Pfizer proprietary curve fitting software.
To determine the inhibition of KAT enzymatic activity by test compounds, assay reactions were conducted in a volume of 100 μL in 96-well round-bottom polypropylene assay plate. The reactions were performed in assay buffer (40 mM bis tris propane, pH 8, 10 mM NaCl, 0.5 mM EDTA, 0.002% Tween-20).

H3K9AC (HT1080 cells) = assay: H3K9AC Sandwich ELISA Assay in HT1080 cells (KAT2A primary cell-based screening assay); parameters: species or system Human
Procedure: Human fibrosarcoma cell line HT1080 was obtained from American Type Culture Collection (ATCC), Manassas, VA USA, Cat. HT-1080 (ATCC® CCL-121™). Cells were cultured in MEM (Thermo Fisher Scientific/Gibco Life Technologies Cat. #11-095-080) plus 10% (v/v) FBS (Thermo Fisher Scientific/Gibco Life Technologies Cat. #26140-079) and 1% Penicillin-Streptomycin (Thermo Fisher Scientific/Gibco Life Technologies Cat. #15070063) at 37° C. in 5% CO2.
HT1080 cells were trypsinized, cell viability count performed, and cells suspended in complete media at 100,000 cells/ml. Cells were seeded (100 μl/well) into Greiner Bio-One CELLSTAR 96-well polystyrene flat bottom cell culture microplate (Thermo Fisher Scientific Cat. #07-000-162) at a density of 10,000 cells/well. Cells were incubated for 16 hours at 37° C. at 5% CO2. Compound dilution plates were prepared in 96-well, clear U-bottom, polypropylene plates (Corning 3365) in 100% DMSO at 10 mM stock concentration in duplicate, using 10-point serial dilution (1:3). Compounds were diluted to 1:200 in growth medium and 25 μl from intermediate compound plates were added to each well of the cell plates using a Beckman FX liquid handling system such that the highest compound concentration tested was 10 μM final, with a 0.1% final DMSO concentration in the total volume of 125 μl. Plates were incubated for 24 hours at 37° C. and 5% CO2. Plates were centrifuged at 2500 rpm for 5 minutes and medium was removed. 100 μL 0.4N HCL (Thermo Fisher Scientific Cat #SA56-1) was added to each well and plates were shaken for 60 minutes at 4C to lyse cells. 38ul 0.4N Sodium phosphase dibasic pH12.5 (Thermo Fisher Scientific Cat #S375-212) containing 2 mM Sodium Butyrate (Millipore TR1008G) and 3 mM Phenylmethanesulfonyl-fluoride (Sigma 93482) was added to each well to neutralize lysates.
Cell lysate plates were mixed for 5 minutes at room temperature on shaker and immediately frozen at −80C overnight. Cell lysates were thawed and 50 μL/well was transferred to ELISA plates (Total Histone H3 mouse (Cell Signaling Technology Cat #14269) mAb-coated Corning 1×8 strip-well, white, 96-well plates (Corning 2485)). After 2 hours room temperature incubation, plates were washed six times with PBS/0.05% Tween Wash Buffer using a BioTek plate washer. 50 μL of Histone H3K9AC rabbit detection mAb (Cell Signaling Technology Cat #9649S) diluted 1:1000 in blocking buffer (Thermo Fisher Scientific Cat #37542) was added to each well and incubated for 2 hours at room temperature. After washing, 50 μL anti-rabbit IgG, HRP-Linked antibody (Cell Signaling Technology Cat #7074) diluted 1:1000 in blocking buffer was added to each well and incubated for 60 minutes at room temperature. Following incubation, plates were washed as described above. 50 μL of luminescent GLO substrate reagent (R&D System Cat #DY993) was added to each well and incubated for 10 minutes at room temperature. Plates were read on the PHERAstar plate reader using the 96-well with Luminescent reading mode. IC50 values were calculated using a four-parameter fit with GraphPad Prism version 9.5.1 or in-house modified IDBS ActivityBase data analyzing package.

[1] = read-out: KAT2A Ki at 1 μM AcCoA, 5 μM H3 1-21 peptide, 0.5 nM KAT2A, 90-minute reaction
[2] = Homo sapiens, HT-1080, H3K9AC sandwich ELISA

Sequence of KAT2A (Q92830 whole entry): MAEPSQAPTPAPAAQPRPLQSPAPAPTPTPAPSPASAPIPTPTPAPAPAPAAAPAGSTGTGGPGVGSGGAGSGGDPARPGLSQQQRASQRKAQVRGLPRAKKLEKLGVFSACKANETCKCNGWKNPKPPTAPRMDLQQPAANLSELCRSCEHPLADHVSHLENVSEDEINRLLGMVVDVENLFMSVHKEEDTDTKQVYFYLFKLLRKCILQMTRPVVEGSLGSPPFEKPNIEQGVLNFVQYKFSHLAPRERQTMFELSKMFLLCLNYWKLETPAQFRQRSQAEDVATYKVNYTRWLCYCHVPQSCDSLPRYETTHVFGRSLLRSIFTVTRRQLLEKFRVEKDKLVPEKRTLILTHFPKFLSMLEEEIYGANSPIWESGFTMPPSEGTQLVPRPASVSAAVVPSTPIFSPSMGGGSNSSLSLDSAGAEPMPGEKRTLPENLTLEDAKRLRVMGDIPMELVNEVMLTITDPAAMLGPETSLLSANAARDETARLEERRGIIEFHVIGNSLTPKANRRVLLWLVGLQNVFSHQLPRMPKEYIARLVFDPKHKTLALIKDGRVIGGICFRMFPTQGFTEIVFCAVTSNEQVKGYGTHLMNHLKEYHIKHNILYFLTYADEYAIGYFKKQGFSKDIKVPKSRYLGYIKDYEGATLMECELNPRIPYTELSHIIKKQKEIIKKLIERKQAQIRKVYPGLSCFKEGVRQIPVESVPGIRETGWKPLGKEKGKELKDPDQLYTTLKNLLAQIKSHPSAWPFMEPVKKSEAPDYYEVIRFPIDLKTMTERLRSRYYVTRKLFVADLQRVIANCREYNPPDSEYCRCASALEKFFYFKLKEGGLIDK

Row | Ki (KAT2A; [1]) [nM] | IC50 (H3K9AC (HT1080 cells); H3K9AC sandwich ELISA) [nM] | IC50 (H3K9AC (HT1080 cells); [2]) [nM] | Ki (KAT2A; KAT2A Ki at 1 μM AcCoA, 5 μM H3 1-21 peptide, 0.5 nM KAT2A, 90-minute reaction) [nM] | SMILES
1 |  | 790 |  | 61.6 | C[C@@H](C(=O)O)c1nn(C)cc1-c1ccc(O[C@@H]2CC[C@@H](NC(=O)[C@]3(F)CNC4(CCC4)C3)C2)c(-c2cccc(F)c2C2CCC2)c1 (single isomer, unassigned) [Example J2]
2 | > 1000 | 746 |  |  | Cn1cc(-c2ccc(O[C@@H]3CC[C@@H](NC(=O)[C@]4(F)CNC5(CCC5)C4)C3)c(-c3cccc(F)c3C3CCC3)c2)c(C(C)(C)C(=O)O)n1 (single isomer, unassigned) [Example J6]
3 | 2.16 | 4300 |  |  | Cn1cc(-c2ccc(O[C@@H]3CC[C@@H](NC(=O)[C@]4(F)CNC5(CCC5)C4)C3)c(-c3cccc(F)c3C3CCC3)c2)c(C(=O)O)n1 (single isomer, unassigned) [Example J9]
4 | 0.08 | 8.85 |  |  | O=C(O)c1nn(C2CC2)cc1-c1ccc(O[C@@H]2CC[C@@H](NC(=O)[C@@]3(F)CNC4(CCC4)C3)C2)c(-c2cccc(F)c2C2CCC2)c1 (single isomer, unassigned) [Example J11]
5 | 25.8 | > 1000 |  |  | O=C(O)c1nn(C2CC2)cc1-c1ccc(O[C@@H]2CC[C@@H](NC(=O)[C@@]3(F)CNC4(CCC4)C3)C2)c(-c2cccc(F)c2C2CCC2)c1 (single isomer, unassigned) [Example J12]
6 | 27.3 | 451 |  |  | CC(C)n1cc(-c2ccc(O[C@@H]3CC[C@@H](NC(=O)[C@@]4(F)CNC5(CCC5)C4)C3)c(-c3cccc(F)c3C3CCC3)c2)c(C(=O)O)n1 (single isomer, unassigned) [Example J15]
7 | 1.21 |  | 28.6 |  | CN1CC(C)(C)C[C@H]1C(=O)N[C@H]1C[C@H](Oc2ccc(C(=O)O)cc2-c2ccccc2C2CCC2)C[C@H]1O (single isomer, unassigned) [Example K2, 2′-cyclobutyl-6-({(1ξ,3ξ,4ξ)-3-hydroxy-4-[(1,4,4-trimethyl-L-prolyl)amino]cyclopentyl}oxy)[1,1′-biphenyl]-3-carboxylic acid]

The next lines start with the compound.

Row | SMILES | Ki (KAT2A; [1]) [nM] | IC50 (H3K9AC (HT1080 cells); H3K9AC sandwich ELISA) [nM] | IC50 (H3K9AC (HT1080 cells); [2]) [nM] | Ki (KAT2A; KAT2A Ki at 1 μM AcCoA, 5 μM H3 1-21 peptide, 0.5 nM KAT2A, 90-minute reaction) [nM]
8 | CC(C)S(=O)(=O)NC(=O)Cc1ccc(O[C@@H]2CC[C@@H](NC(=O)[C@@]3(F)CNCC(C)(C)C3)C2)c(-c2cccc(F)c2C2CCC2)c1 (single isomer, unassigned) [Example C76] | 46 | 485 |  | 
9 | CC(C)S(=O)(=O)NC(=O)Cc1ccc(O[C@@H]2CC[C@@H](NC(=O)[C@@]3(F)CNCC(C)(C)C3)C2)c(-c2cccc(F)c2C2CCC2)c1 (single isomer, unassigned) [Example C77] | 0.05 | 6 |  | 
10 | CC1(C)CNC[C@](F)(C(=O)N[C@@H]2CC[C@@H](Oc3ccc(CC(=O)NS(=O)(=O)C4(C)CC4)cc3-c3cccc(F)c3C3CCC3)C2)C1 (single isomer, unassigned) [Example C78] | 0.08 | > 1000 |  | 
11 | CC1(C)CNC[C@](F)(C(=O)N[C@@H]2CC[C@@H](Oc3ccc(CC(=O)NS(=O)(=O)C4(C)CC4)cc3-c3cccc(F)c3C3CCC3)C2)C1 (single isomer, unassigned) [Example C79] | 0.06 | 3.6 |  | 
12 | CC(C)c1ccccc1-c1cc(CC(=O)NS(=O)(=O)C2(C)CC2)ccc1O[C@@H]1CC[C@@H](NC(=O)[C@@]2(F)CNCC(C)(C)C2)C1 (single isomer, unassigned) [Example C80] | 0.11 | 2.6 |  | 
13 | CC(C)c1ccccc1-c1cc(CC(=O)NS(=O)(=O)C2(C)CC2)ccc1O[C@@H]1CC[C@@H](NC(=O)[C@@]2(F)CNCC(C)(C)C2)C1 (single isomer, unassigned) [Example C81] | 31.1 | 135 |  | 
14 | CCc1c(F)cccc1-c1cc([C@@H](C)C(=O)NS(=O)(=O)C2(C)CC2)ccc1O[C@@H]1CC[C@@H](NC(=O)[C@@]2(F)CNC3(CCC3)C2)C1 (single isomer, unassigned) [Example C82] | 0.07 | 8.7 |  | 
15 | CCc1c(F)cccc1-c1cc([C@@H](C)C(=O)NS(=O)(=O)C2(C)CC2)ccc1O[C@@H]1CC[C@@H](NC(=O)[C@@]2(F)CNC3(CCC3)C2)C1 (single isomer, unassigned) [Example C83] | 0.08 | 2.4 |  | 
16 | CCc1c(F)cccc1-c1cc([C@@H](C)C(=O)NS(=O)(=O)C2(C)CC2)ccc1O[C@@H]1CC[C@@H](NC(=O)[C@@]2(F)CNC3(CCCC3)C2)C1 (single isomer, unassigned) [Example C85] | 0.17 | 6.1 |  | 
17 | CCc1c(F)cccc1-c1cc([C@@H](C)C(=O)NS(=O)(=O)C2(C)CC2)ccc1O[C@@H]1CC[C@@H](NC(=O)[C@@]2(F)CNC3(CCCC3)C2)C1 (single isomer, unassigned) [Example C87] | 0.07 | 1.5 |  | 
18 | CCS(=O)(=O)NC(=O)[C@H](C)c1ccc(O[C@@H]2CC[C@@H](NC(=O)[C@@]3(F)CNC4(CCC4)C3)C2)c(-c2ccccc2C(C)C)c1 (single isomer, unassigned) [Example C88] | 0.21 |  | 10.3 | 
19 | CCS(=O)(=O)NC(=O)C(C)c1ccc(O[C@@H]2CC[C@@H](NC(=O)[C@@]3(F)CNC4(CCC4)C3)C2)c(-c2ccccc2C(C)C)c1 (single isomer, unassigned) [Example C89] | 0.16 | 6.5 |  | 
20 | CCS(=O)(=O)NC(=O)C(C)c1ccc(O[C@@H]2CC[C@@H](NC(=O)[C@@]3(F)CNC4(CCC4)C3)C2)c(-c2cccc(F)c2C2CCC2)c1 (single isomer, unassigned) [Example C90] | 0.05 |  | 3.3 | 
21 | CCS(=O)(=O)NC(=O)[C@H](C)c1ccc(O[C@@H]2CC[C@@H](NC(=O)[C@@]3(F)CNC4(CCC4)C3)C2)c(-c2cccc(F)c2C2CCC2)c1 (single isomer, unassigned) [Example C91] | 0.06 | 5.4 |  | 
22 | CN1CC2(CCCC2)C[C@@H]1C(=O)N[C@@H]1CC[C@@H](Oc2ccc(C(=O)O)cc2-c2ccccc2C2CCC2)C1 (single isomer, unassigned) [Example D9] | 6.76 |  | 67.2 | 
23 | C[C@H](C(=O)NS(C)(=O)=O)c1ccc(OC[C@H]2C[C@H](NC(=O)[C@@H]3CC(C)(C)CN3C)C2)c(-c2cccc(F)c2C2CCC2)c1 (single isomer, unassigned) [Example G3] | 2.15 |  | 20.5 | 
24 | C[C@@H](C(=O)NS(C)(=O)=O)c1ccc(OC[C@H]2C[C@H](NC(=O)[C@@H]3CC(C)(C)CN3C)C2)c(-c2cccc(F)c2C2CCC2)c1 (single isomer, unassigned) [Example G4] | 1.3 |  | 30.4 | 
25 | O=C(O)c1ccc(O[C@@H]2CC[C@@H](NC(=O)[C@@]3(F)CNC4(CCC4)C3)C2)c(-c2cccc(F)c2C2CCC2)c1 [Example A29, 2′-cyclobutyl-3′-fluoro-6-{[(1R,3R)-3-{[(7S)-7-fluoro-5-azaspiro[3.4]octane-7-carbonyl]amino}cyclopentyl]oxy}[1,1′-biphenyl]-3-carboxylic acid] | 0.11 |  | > 1000 | 
26 | CCc1c(F)cccc1-c1cc(C(C)(C)C(=O)NS(=O)(=O)CC)ccc1O[C@@H]1CC[C@@H](NC(=O)[C@@]2(F)CNC3(CCC3)C2)C1 [Example C17, (7S)-N-[(1R,3R)-3-({5-[1-(ethanesulfonamido)-2-methyl-1-oxopropan-2-yl]-2′-ethyl-3′-fluoro[1,1′-biphenyl]-2-yl}oxy)cyclopentyl]-7-fluoro-5-azaspiro[3.4]octane-7-carboxamide] | 2750 |  | > 1000 | 
